Measured values reported in paper PMC5391474, “Investigation of the Role of Protein Kinase D in Human Rhinovirus Replication” (Journal of Virology, 2017).

Columns and labels:
Experiment in all cases: biochemical
Set-up in all cases: in vitro kinase selectivity panel, protein and lipid kinases, single concentration, ATP at Km
Conditions in all cases: ATP at Km
CK2(h) = target: T1, CK2(h) (Homo sapiens, UniProt P68400)
T1 construct: gene CSNK2A1
Outline: (§1)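 Single-point screen against a protein and lipid kinase panel: inhibitor at 1 μM. ATP concentration for every kinase equivalent to its Km.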

Hck(h) = Hck(h) (Homo sapiens, UniProt P08631)
Outline: as §1

Blk(m) = Blk(m) (Mus musculus, UniProt P16277)
Outline: as §1

Fms(h) = target: T2, Fms(h) (Homo sapiens, UniProt P07333)
T2 construct: gene CSF1R
Outline: as §1

PI4K2A = PI4K2A (Homo sapiens, UniProt Q9BTU6)
Outline: as §1

PDGFRα(h) = target: T3, PDGFRα(h) (Homo sapiens, UniProt P16234)
T3 construct: gene PDGFRA
Outline: as §1

EGFR(T790M)(h) = EGFR(T790M)(h) (Homo sapiens, UniProt P00533, T790M)
Outline: as §1

FGFR2(h) = FGFR2(h) (Homo sapiens, UniProt P21802)
Outline: as §1

GSK3β(h) = target: T4, GSK3β(h) (Homo sapiens, UniProt P49841)
T4 construct: gene GSK3B
Outline: as §1

CaMKIV(h) = target: T5, CaMKIV(h) (Homo sapiens, UniProt Q16566)
T5 construct: gene CAMK4
Outline: as §1

PDK1(h) = target: T6, PDK1(h) (Homo sapiens, UniProt O15530)
T6 construct: gene PDPK1
Outline: as §1

Flt1(h) = Flt1(h) (Homo sapiens, UniProt P17948)
Outline: as §1

IR(h) = target: T7, IR(h) (Homo sapiens, UniProt P06213)
T7 construct: gene INSR
Outline: as §1

IKKα(h) = target: T8, IKKα(h) (Homo sapiens, UniProt O15111)
T8 construct: gene CHUK
Outline: as §1

Tie2 (h) = target: T9, Tie2 (h) (Homo sapiens, UniProt Q02763)
T9 construct: gene TEK
Outline: as §1

LIMK1(h) = LIMK1(h) (Homo sapiens, UniProt P53667)
Outline: as §1

CSK(h) = CSK(h) (Homo sapiens, UniProt P41240)
Outline: as §1

cSRC(h) = target: T10, cSRC(h) (Homo sapiens, UniProt P12931)
T10 construct: gene SRC
Outline: as §1

T1 sequence (P68400 whole entry): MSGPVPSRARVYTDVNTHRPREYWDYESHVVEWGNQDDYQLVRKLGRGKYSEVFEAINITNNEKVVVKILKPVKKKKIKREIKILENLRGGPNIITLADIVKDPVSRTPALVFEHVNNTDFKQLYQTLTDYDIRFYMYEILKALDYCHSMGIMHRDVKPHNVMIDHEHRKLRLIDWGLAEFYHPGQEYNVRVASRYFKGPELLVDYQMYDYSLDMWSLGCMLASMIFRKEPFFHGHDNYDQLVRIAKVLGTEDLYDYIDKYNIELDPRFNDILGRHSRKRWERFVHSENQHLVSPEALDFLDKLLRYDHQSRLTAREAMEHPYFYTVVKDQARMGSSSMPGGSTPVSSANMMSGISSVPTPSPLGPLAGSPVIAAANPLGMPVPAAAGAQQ
T1 sequence (P67870 whole entry partner): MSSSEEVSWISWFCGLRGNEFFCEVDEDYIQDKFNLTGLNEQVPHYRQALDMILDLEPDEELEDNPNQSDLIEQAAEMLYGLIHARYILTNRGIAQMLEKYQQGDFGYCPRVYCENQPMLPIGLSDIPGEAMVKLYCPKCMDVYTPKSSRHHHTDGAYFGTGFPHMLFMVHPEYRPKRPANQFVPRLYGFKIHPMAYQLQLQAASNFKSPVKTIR
T4 sequence (P49841 whole entry): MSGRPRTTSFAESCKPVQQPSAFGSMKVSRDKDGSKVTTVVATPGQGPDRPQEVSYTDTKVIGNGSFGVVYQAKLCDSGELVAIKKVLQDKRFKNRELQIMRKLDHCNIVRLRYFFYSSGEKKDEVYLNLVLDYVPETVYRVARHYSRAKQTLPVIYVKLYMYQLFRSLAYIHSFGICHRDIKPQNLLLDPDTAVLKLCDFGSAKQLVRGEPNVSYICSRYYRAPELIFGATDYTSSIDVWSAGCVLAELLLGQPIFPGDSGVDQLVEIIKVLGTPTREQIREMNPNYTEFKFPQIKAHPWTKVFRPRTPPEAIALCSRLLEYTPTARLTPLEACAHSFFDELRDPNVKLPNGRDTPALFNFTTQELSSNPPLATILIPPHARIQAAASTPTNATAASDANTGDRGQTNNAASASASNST
FGFR2(h), sequence (P21802 whole entry): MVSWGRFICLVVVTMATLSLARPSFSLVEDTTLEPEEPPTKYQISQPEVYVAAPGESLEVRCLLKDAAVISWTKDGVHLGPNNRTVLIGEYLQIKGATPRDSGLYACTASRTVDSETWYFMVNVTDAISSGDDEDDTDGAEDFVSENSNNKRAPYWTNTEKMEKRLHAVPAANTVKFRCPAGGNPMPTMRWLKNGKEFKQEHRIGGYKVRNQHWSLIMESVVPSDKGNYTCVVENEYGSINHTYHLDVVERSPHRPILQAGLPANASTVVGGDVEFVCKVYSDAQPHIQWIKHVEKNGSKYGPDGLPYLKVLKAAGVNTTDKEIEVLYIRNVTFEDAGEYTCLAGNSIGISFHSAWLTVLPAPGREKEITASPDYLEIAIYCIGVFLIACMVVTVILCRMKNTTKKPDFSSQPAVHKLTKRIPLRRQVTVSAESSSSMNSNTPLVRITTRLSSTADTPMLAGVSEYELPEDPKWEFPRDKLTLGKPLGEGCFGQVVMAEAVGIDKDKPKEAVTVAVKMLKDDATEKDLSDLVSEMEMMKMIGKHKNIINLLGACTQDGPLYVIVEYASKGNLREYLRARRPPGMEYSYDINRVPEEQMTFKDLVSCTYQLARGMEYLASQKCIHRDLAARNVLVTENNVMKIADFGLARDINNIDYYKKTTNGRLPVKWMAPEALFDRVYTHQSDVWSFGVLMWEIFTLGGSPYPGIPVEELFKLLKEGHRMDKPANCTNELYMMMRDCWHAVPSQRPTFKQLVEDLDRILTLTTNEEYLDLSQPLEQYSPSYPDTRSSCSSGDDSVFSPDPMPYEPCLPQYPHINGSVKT
LIMK1(h), sequence (P53667 whole entry): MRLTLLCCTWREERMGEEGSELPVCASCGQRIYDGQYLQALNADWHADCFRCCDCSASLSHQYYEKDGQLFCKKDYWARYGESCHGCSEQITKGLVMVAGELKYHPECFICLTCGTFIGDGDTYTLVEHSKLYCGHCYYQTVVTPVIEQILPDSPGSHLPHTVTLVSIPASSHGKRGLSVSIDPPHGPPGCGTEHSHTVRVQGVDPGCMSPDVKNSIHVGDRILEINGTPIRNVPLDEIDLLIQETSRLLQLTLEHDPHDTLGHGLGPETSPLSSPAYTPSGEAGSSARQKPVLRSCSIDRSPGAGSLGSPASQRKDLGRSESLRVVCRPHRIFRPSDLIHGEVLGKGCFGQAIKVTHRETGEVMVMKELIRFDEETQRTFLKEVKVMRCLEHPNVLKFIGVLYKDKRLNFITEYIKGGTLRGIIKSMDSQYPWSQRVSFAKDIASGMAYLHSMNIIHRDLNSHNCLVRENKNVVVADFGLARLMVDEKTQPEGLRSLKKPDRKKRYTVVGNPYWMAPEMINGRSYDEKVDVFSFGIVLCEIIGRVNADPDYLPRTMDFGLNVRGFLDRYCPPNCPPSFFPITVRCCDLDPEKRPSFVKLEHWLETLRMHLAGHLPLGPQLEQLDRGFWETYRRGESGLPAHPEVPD
T2 sequence (P07333 whole entry): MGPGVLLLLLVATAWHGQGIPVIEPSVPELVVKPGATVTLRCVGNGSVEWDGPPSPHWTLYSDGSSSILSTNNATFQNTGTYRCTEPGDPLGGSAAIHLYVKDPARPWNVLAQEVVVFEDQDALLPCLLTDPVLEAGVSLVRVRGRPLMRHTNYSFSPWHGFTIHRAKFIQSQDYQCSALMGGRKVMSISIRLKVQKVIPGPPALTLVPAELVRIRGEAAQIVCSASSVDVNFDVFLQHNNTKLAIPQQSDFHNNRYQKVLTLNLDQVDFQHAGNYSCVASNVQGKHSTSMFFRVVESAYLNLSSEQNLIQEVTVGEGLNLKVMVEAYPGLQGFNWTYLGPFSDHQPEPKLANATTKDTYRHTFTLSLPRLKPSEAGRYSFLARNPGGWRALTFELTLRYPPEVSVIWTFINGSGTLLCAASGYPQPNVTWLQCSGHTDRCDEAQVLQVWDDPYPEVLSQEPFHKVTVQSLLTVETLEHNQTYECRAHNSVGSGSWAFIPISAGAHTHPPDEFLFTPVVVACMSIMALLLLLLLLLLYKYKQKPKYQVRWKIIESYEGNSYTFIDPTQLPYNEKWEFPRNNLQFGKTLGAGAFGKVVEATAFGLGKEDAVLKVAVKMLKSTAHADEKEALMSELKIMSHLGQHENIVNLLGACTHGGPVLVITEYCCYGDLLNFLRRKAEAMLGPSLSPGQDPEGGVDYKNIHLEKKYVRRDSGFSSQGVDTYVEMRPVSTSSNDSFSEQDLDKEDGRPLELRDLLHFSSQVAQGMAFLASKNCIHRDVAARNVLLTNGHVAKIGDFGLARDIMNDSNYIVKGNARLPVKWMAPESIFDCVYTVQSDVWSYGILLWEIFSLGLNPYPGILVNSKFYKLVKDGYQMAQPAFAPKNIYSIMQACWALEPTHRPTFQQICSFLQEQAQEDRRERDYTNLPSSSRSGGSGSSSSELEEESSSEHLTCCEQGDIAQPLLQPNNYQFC
T3 sequence (P16234 whole entry): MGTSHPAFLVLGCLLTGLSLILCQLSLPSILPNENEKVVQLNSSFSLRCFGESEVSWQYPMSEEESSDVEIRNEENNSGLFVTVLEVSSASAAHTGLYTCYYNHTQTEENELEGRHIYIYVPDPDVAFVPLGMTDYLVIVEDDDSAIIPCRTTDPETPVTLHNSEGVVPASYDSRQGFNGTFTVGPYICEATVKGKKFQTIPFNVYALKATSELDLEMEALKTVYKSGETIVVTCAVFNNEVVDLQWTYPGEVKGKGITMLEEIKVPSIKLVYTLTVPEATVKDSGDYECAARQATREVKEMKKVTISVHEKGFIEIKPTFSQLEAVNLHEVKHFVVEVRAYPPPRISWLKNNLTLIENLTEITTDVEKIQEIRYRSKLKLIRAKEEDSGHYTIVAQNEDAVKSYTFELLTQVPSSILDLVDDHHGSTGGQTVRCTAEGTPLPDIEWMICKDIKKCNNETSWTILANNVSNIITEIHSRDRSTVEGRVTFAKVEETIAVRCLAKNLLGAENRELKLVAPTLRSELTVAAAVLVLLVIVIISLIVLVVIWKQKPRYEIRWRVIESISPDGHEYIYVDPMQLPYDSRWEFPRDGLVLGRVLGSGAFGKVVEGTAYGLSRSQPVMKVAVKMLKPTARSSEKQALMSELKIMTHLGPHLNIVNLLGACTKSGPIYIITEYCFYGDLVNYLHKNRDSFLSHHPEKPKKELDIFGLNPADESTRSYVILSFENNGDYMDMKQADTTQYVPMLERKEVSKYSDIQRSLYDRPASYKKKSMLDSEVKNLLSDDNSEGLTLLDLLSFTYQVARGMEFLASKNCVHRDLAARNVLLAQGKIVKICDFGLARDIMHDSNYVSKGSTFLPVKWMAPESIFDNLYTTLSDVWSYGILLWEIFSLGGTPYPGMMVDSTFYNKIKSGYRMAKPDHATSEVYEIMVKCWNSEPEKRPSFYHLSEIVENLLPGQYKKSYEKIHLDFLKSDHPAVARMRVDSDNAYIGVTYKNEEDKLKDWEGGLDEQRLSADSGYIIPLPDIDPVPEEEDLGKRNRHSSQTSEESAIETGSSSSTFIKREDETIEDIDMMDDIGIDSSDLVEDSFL
PI4K2A, sequence (Q9BTU6 whole entry): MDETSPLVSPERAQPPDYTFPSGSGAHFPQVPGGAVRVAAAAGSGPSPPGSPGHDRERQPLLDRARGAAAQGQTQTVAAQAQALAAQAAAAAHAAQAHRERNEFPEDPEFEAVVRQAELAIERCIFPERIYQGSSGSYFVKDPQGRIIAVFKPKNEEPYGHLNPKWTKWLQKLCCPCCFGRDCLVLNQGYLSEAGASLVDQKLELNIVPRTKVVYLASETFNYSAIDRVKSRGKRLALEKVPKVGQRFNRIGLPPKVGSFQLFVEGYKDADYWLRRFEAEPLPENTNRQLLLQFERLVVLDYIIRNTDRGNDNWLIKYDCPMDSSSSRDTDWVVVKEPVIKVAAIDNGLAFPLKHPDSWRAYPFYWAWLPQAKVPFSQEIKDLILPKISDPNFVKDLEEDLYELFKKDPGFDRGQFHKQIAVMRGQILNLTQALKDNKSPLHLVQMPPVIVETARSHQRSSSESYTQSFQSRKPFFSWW

## CC[C@@H](N)CNc1ccnc(-c2cc(-c3cnn(C)c3)ccc2O)n1 [CRT0066101]
CK2(h)
  inhibition at 1 µM: 19%
Hck(h)
  inhibition at 1 µM: 4%
Blk(m)
  inhibition at 1 µM: 12%
Fms(h)
  inhibition at 1 µM: 12%
PI4K2A
  inhibition at 1 µM: 4%
PDGFRα(h)
  inhibition at 1 µM: 14%
EGFR(T790M)(h)
  inhibition at 1 µM: -2%
FGFR2(h)
  inhibition at 1 µM: 5%
GSK3β(h)
  inhibition at 1 µM: 18%
CaMKIV(h)
  inhibition at 1 µM: 26%
PDK1(h)
  inhibition at 1 µM: -17%
Flt1(h)
  inhibition at 1 µM: -6%
IR(h)
  inhibition at 1 µM: -22%
IKKα(h)
  inhibition at 1 µM: 66%
Tie2 (h)
  inhibition at 1 µM: 4%
LIMK1(h)
  inhibition at 1 µM: 0%
CSK(h)
  inhibition at 1 µM: 7%
cSRC(h)
  inhibition at 1 µM: 3%
